Among the data in ChEMBL document CHEMBL3046355, “Design, synthesis, and herbicidal activities of novel 2-cyanoacrylates containing isoxazole moieties” (2010) are inhibition values, retold here.

Holding throughout (format): functional
In test [1] the test system is Brassica napus. Briefly: Herbicidal activity against Brassica napus (oilseed rape) assessed as inhibition of weed growth at 1.5 kg/ha using postemergence treatment protocol. The note with it: post-emergence.
Test [2] concerns Amaranthus retroflexus. Briefly: Herbicidal activity against Amaranthus retroflexus assessed as inhibition of weed growth at 1.5 kg/ha using postemergence treatment protocol. The note with it: post-emergence.
The test system of test [3] is Brassica napus. In words: Herbicidal activity against Brassica napus (oilseed rape) assessed as inhibition of weed growth at 1.5 kg/ha using preemergence treatment protocol. The note with it: pre-emergence.
The test system of test [4] is Echinochloa crus-galli. In words: Herbicidal activity against Echinochloa crus-galli (barnyard grass) assessed as inhibition of weed growth at 1.5 kg/ha using preemergence treatment protocol. As to conditions: pre-emergence.
Test [5] relates to Brassica napus. Briefly: Herbicidal activity against Brassica napus (oilseed rape) assessed as inhibition of weed growth at 750 g/ha using postemergence treatment protocol. The note with it: post-emergence.
The test system of test [6] is Digitaria sanguinalis. Briefly: Herbicidal activity against Digitaria sanguinalis (hairy crabgrass) assessed as inhibition of weed growth at 1.5 kg/ha using pre-emergence treatment protocol.
Test [7] concerns Amaranthus retroflexus. Briefly: Herbicidal activity against Amaranthus retroflexus assessed as inhibition of weed growth at 75 g/ha using postemergence treatment protocol. As to conditions: post-emergence.
The test system of test [8] is Amaranthus retroflexus. Briefly: Herbicidal activity against Amaranthus retroflexus assessed as inhibition of weed growth at 150 g/ha using postemergence treatment protocol. The note with it: post-emergence.
Test [9] has as its system Amaranthus retroflexus. Briefly: Herbicidal activity against Amaranthus retroflexus assessed as inhibition of weed growth at 1.5 kg/ha using preemergence treatment protocol. As to conditions: pre-emergence.
Test [10] has as its system Echinochloa crus-galli. In words: Herbicidal activity against Echinochloa crus-galli (barnyard grass) assessed as inhibition of weed growth at 1.5 kg/ha using postemergence treatment protocol. As to conditions: post-emergence.
The subject of test [11] is Brassica napus. In words: Herbicidal activity against Brassica napus (oilseed rape) assessed as inhibition of weed growth at 150 g/ha using postemergence treatment protocol. As to conditions: post-emergence.
Test [12] has as its system Brassica napus. In words: Herbicidal activity against Brassica napus (oilseed rape) assessed as inhibition of weed growth at 75 g/ha using postemergence treatment protocol. The note with it: post-emergence.
Test [13] deals with Amaranthus retroflexus. Briefly: Herbicidal activity against Amaranthus retroflexus assessed as inhibition of weed growth at 750 g/ha using postemergence treatment protocol. As to conditions: post-emergence.
The test system of test [14] is Amaranthus retroflexus. In words: Herbicidal activity against Amaranthus retroflexus assessed as inhibition of weed growth at 375 g/ha using postemergence treatment protocol. The note with it: post-emergence.
Test [15] concerns Digitaria sanguinalis. In words: Herbicidal activity against Digitaria sanguinalis (hairy crabgrass) assessed as inhibition of weed growth at 1.5 kg/ha using post-emergence treatment protocol.
Test [16] has as its system Brassica napus. Briefly: Herbicidal activity against Brassica napus (oilseed rape) assessed as inhibition of weed growth at 375 g/ha using postemergence treatment protocol. As to conditions: post-emergence.

Molecules are shown by their SMILES.

Regarding `CCOCCOC(=O)/C(C#N)=C(\NCc1cc(-c2ccc(Cl)cc2Cl)no1)C(C)C`, the inhibition at 1500 g/ha in the test with Brassica napus [1] is 100%; with Amaranthus retroflexus [2] it was 100%; in the test with Brassica napus [3] it was 21.3%; in the test on Echinochloa crus-galli [4], 0%; in the test on Digitaria sanguinalis [6], 18.1%; with Amaranthus retroflexus [9] it was 50.2%. Besides, the inhibition at 1500 g/ha came out at 56.7% in the test on Echinochloa crus-galli [10] and 63.3% with Digitaria sanguinalis [15]. Also, the inhibition at 750 g/ha with Brassica napus [5] and with Amaranthus retroflexus [13] was 100% in each case. Further, the results for the inhibition at 75 g/ha with Amaranthus retroflexus [7] and with Brassica napus [12] were 10.9% and 11.4%, respectively. For the same molecule, the inhibition at 150 g/ha in the test on Amaranthus retroflexus [8] turned out to be 19.6%; in the test with Brassica napus [11] it was 21.8%. For the same molecule, the inhibition at 375 g/ha in the test with Amaranthus retroflexus [14] and in the test with Brassica napus [16] was 100% in each case.

Turning to `CCOCCOC(=O)/C(C#N)=C(\NCc1cc(-c2ccc(OC)cc2)no1)C(C)C`, the inhibition at 1500 g/ha in the test on Brassica napus [1] was determined as 100%; in the test with Amaranthus retroflexus [2], 100%; with Brassica napus [3] it was 40.9%; with Echinochloa crus-galli [4] it was 0%; in the test with Digitaria sanguinalis [6], 0%; in the test on Amaranthus retroflexus [9], 45.2%. In addition, the inhibition at 1500 g/ha is 0% with Echinochloa crus-galli [10] and 14.3% in the test with Digitaria sanguinalis [15]. In addition, the inhibition at 750 g/ha in the test with Brassica napus [5] and in the test on Amaranthus retroflexus [13] was 100% throughout. Besides, the results for the inhibition at 75 g/ha in the test with Amaranthus retroflexus [7] and with Brassica napus [12] were 65.2% and 82.5%, respectively. Also, the values for the inhibition at 150 g/ha in the test on Amaranthus retroflexus [8] and with Brassica napus [11] were 93.5% and 100%, respectively. Besides, the inhibition at 375 g/ha with Amaranthus retroflexus [14] and with Brassica napus [16] was 100% throughout.

Take `CCOCCOC(=O)/C(C#N)=C(\NCc1cc(-c2ccccc2OC)no1)C(C)C`: the inhibition at 1500 g/ha worked out at 100% in the test with Brassica napus [1]; 95.1% in the test with Amaranthus retroflexus [2]; 17.4% with Brassica napus [3]; 0% in the test on Echinochloa crus-galli [4]; 5.5% in the test with Digitaria sanguinalis [6]; 44.9% in the test on Amaranthus retroflexus [9]. Besides, the inhibition at 1500 g/ha in the test with Echinochloa crus-galli [10] stood at 56.4%; in the test on Digitaria sanguinalis [15] it was 82%. Also, the inhibition at 750 g/ha with Brassica napus [5] and with Amaranthus retroflexus [13] was 100% throughout. In addition, the inhibition at 75 g/ha with Amaranthus retroflexus [7] turned out to be 17.4%; in the test on Brassica napus [12], 17.1%. The inhibition at 150 g/ha was found to be 23.9% with Amaranthus retroflexus [8] and 27% with Brassica napus [11]. For the same molecule, the inhibition at 375 g/ha in the test with Amaranthus retroflexus [14] and in the test with Brassica napus [16] was 100% each time.

Consider `CCOCCOC(=O)/C(C#N)=C(\NCc1cc(-c2ccccc2Cl)no1)C(C)C`, for which the inhibition at 1500 g/ha with Brassica napus [1] was 100%; in the test on Amaranthus retroflexus [2], 100%; in the test with Echinochloa crus-galli [4], 0%; in the test on Digitaria sanguinalis [6], 0%; in the test on Amaranthus retroflexus [9] it was 0%; in the test with Echinochloa crus-galli [10] it was 47.2%. Moreover, in the test on Digitaria sanguinalis [15], the inhibition at 1500 g/ha stood at 24%. In addition, the results for the inhibition at 750 g/ha in the test with Brassica napus [5] and in the test with Amaranthus retroflexus [13] were 100% and 98.3%, respectively. For the same molecule, the results for the inhibition at 75 g/ha in the test with Amaranthus retroflexus [7] and in the test with Brassica napus [12] were 77% and 100%, respectively. In addition, the inhibition at 150 g/ha was found to be 94.4% in the test on Amaranthus retroflexus [8] and 100% in the test on Brassica napus [11]. For the same molecule, the inhibition at 375 g/ha stood at 96% with Amaranthus retroflexus [14] and 100% with Brassica napus [16].

As for `CCOCCOC(=O)/C(C#N)=C(\NCc1cc(-c2ccc(Cl)cc2)no1)C(C)C`, the inhibition at 1500 g/ha came to 100% with Brassica napus [1]; 100% with Amaranthus retroflexus [2]; 10.6% in the test on Brassica napus [3]; 0% with Echinochloa crus-galli [4]; 0% in the test with Digitaria sanguinalis [6]; 68.7% with Amaranthus retroflexus [9]. The inhibition at 1500 g/ha with Echinochloa crus-galli [10] worked out at 33%; with Digitaria sanguinalis [15], 64.1%. In addition, the inhibition at 750 g/ha in the test with Brassica napus [5] and in the test on Amaranthus retroflexus [13] was 100% throughout. For the same molecule, the inhibition at 75 g/ha worked out at 8.7% with Amaranthus retroflexus [7] and 29.6% in the test on Brassica napus [12]. The inhibition at 150 g/ha is 26.1% with Amaranthus retroflexus [8] and 36.3% in the test on Brassica napus [11]. The inhibition at 375 g/ha in the test with Amaranthus retroflexus [14] and in the test on Brassica napus [16] was 100% each time.

For `CCOCCOC(=O)/C(C#N)=C(\NCc1cc(-c2ccccc2)no1)C(C)C`, the inhibition at 1500 g/ha in the test with Brassica napus [1] was determined as 100%; with Amaranthus retroflexus [2], 100%; in the test with Brassica napus [3], 28.7%; in the test on Echinochloa crus-galli [4], 0%; in the test with Digitaria sanguinalis [6], 24.9%; in the test on Amaranthus retroflexus [9], 88.6%. Moreover, the inhibition at 1500 g/ha came out at 40% in the test with Echinochloa crus-galli [10] and 59.4% in the test with Digitaria sanguinalis [15]. For the same molecule, the inhibition at 750 g/ha in the test on Brassica napus [5] and in the test with Amaranthus retroflexus [13] was 100% each time. The figures for the inhibition at 75 g/ha in the test on Amaranthus retroflexus [7] and with Brassica napus [12] were 17.4% and 54.2%, respectively. Besides, the inhibition at 150 g/ha with Amaranthus retroflexus [8] came to 78.3%; in the test with Brassica napus [11] it was 97.3%. Also, the inhibition at 375 g/ha in the test with Amaranthus retroflexus [14] and in the test on Brassica napus [16] was 100% throughout.

As to `CCOCCOC(=O)/C(C#N)=C(\NCc1ccc(Cl)nc1)SC`, the inhibition at 1500 g/ha with Brassica napus [1] came to 100%; in the test on Amaranthus retroflexus [2], 100%; in the test with Brassica napus [3], 47.6%; in the test on Echinochloa crus-galli [4], 3.6%; with Digitaria sanguinalis [6] it was 18.8%; in the test on Amaranthus retroflexus [9], 32.4%. Also, the inhibition at 1500 g/ha turned out to be 55.3% in the test with Echinochloa crus-galli [10] and 54.1% with Digitaria sanguinalis [15]. Further, the inhibition at 750 g/ha with Brassica napus [5] was found to be 100%; with Amaranthus retroflexus [13] it was 87.9%. The inhibition at 75 g/ha with Amaranthus retroflexus [7] was 0%; with Brassica napus [12], 80.9%. Also, the inhibition at 150 g/ha worked out at 0% in the test with Amaranthus retroflexus [8] and 100% in the test on Brassica napus [11]. The inhibition at 375 g/ha was 18.7% with Amaranthus retroflexus [14] and 100% with Brassica napus [16].

What is called inhibition is the share of the control response that was lost under treatment.
